Measured values taken from ChEMBL document CHEMBL1201862, “PubChem BioAssay data set” (2004).
Activity calls are given as the source filed them.

Experiments:
[1] = biological target: T1, Corticotropin-releasing factor receptor 2/Corticotropin-releasing factor-binding protein (Homo sapiens, UniProt P24387+Q13324); assay: Dose Response confirmation of uHTS hits for small molecule antagonists of the CRF-binding protein and CRF-R2 receptor complex.; assay type: functional; settings: read-out: IC50_Mean
T1 sequence (Q13324 whole entry): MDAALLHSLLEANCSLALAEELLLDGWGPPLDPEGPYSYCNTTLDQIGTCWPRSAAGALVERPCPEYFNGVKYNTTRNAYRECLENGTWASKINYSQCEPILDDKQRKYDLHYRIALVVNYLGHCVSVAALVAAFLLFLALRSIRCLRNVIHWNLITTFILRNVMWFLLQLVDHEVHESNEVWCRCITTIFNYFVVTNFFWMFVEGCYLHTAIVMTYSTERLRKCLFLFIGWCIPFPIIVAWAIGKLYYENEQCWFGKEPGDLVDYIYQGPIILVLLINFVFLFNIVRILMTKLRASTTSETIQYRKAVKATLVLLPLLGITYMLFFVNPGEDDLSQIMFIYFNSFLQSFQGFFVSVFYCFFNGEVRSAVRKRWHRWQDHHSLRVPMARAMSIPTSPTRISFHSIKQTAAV
T1 sequence (P24387 whole entry): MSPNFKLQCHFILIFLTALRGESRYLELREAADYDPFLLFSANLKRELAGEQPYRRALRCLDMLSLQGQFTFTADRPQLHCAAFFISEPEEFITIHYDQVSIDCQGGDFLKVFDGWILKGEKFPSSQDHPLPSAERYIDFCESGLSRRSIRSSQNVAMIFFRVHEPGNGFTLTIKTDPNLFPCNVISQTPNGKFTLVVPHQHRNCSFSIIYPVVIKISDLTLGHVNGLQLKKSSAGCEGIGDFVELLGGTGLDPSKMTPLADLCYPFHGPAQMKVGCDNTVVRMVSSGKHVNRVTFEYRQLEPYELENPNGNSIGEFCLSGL

Protein skinhead-1 = biological target: T2, Protein skinhead-1 (Caenorhabditis elegans, UniProt P34707); assay type: functional
T2 sequence (P34707 whole entry): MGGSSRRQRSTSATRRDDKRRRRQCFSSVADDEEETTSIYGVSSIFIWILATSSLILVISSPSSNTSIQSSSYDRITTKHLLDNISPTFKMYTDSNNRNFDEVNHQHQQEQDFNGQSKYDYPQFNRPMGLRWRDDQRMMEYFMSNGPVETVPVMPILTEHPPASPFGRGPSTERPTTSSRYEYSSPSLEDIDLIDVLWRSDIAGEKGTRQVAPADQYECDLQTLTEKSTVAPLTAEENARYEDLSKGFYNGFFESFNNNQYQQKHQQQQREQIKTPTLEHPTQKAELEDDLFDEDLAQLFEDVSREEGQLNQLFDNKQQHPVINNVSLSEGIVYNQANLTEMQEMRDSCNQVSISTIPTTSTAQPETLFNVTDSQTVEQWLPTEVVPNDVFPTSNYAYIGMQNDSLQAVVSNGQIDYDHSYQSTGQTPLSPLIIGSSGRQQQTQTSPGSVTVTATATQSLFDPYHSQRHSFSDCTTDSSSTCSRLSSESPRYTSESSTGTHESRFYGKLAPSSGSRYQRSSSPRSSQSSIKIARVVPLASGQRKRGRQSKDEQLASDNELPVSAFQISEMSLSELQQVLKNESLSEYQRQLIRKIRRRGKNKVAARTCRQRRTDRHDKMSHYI

[2] = biological target: T1, Corticotropin-releasing factor receptor 2/Corticotropin-releasing factor-binding protein; assay: activators of CRF receptor 2 with binding protein – uHTS hits, confirmation (AID 602473); assay type: functional; settings: read-out: EC50_Mean
[3] = biological target: T3, Heat shock factor protein 1 (Mus musculus, UniProt P38532); assay: enhancement of HSF1-driven luciferase signal – cell-based, NIH3T3, luminescence, dose retest, confirmation (AID 435004); assay type: functional;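 further: stress induced by proteasome inhibitor MG132 added 30 min after compound; luciferase reporter driven by HSF1 response element in NIH3T3 cells; actives raise luminescence as potentiators of the MG132 stress response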
T3 sequence (P38532 whole entry): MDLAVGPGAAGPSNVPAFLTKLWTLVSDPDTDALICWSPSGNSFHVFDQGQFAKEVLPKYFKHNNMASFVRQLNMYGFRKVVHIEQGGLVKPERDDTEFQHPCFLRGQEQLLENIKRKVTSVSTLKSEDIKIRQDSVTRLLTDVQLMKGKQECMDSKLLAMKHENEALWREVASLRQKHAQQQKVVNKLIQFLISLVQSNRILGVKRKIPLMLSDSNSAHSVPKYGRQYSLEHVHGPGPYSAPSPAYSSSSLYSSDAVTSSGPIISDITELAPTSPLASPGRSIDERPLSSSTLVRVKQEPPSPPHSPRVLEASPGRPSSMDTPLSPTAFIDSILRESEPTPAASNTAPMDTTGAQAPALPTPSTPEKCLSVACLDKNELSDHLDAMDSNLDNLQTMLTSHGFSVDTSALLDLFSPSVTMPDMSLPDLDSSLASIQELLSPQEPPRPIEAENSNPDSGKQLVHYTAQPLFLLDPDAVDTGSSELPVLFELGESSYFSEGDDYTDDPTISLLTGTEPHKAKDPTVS

Cytochrome P450 1A2 = biological target: T4, Cytochrome P450 1A2 (Homo sapiens, UniProt P05177);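 further: PubChem cytochrome P450 panel assay, CYP1A2 panel member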
T4 sequence (P05177 whole entry): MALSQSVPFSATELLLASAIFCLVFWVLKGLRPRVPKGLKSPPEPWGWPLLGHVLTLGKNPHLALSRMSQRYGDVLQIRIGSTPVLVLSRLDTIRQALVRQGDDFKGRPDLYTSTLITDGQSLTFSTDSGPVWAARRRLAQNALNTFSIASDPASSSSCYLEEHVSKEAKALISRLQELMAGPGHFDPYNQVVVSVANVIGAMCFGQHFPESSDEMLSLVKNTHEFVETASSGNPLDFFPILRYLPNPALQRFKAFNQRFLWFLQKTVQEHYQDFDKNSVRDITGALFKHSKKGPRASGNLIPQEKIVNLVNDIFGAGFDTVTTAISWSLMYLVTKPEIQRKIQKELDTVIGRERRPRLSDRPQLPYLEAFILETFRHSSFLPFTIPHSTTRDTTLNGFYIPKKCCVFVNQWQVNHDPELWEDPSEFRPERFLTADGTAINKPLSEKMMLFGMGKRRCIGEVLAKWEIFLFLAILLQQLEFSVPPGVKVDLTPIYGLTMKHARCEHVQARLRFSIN

Cytochrome P450 3A4 = Cytochrome P450 3A4 (Homo sapiens, UniProt P08684);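 further: CYP3A4 tested as one member of a cytochrome P450 panel screen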
Sequence of Cytochrome P450 3A4 (P08684 whole entry): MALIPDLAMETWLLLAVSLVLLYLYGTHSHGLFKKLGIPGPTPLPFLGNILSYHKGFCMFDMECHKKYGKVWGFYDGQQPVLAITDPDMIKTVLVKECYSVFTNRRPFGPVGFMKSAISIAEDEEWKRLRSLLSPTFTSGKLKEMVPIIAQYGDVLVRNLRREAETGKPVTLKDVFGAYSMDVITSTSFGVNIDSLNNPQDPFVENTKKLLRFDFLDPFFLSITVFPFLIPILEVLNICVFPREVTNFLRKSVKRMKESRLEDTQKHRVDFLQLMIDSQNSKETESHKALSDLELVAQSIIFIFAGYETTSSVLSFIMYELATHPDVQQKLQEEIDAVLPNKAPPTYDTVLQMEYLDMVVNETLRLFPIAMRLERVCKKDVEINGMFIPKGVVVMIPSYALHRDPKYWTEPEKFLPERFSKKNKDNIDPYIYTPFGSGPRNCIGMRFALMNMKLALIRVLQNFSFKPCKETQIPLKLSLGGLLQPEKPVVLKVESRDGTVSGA

Cytochrome P450 2C9 = Cytochrome P450 2C9 (Homo sapiens, UniProt P11712)
Sequence of Cytochrome P450 2C9 (P11712 whole entry): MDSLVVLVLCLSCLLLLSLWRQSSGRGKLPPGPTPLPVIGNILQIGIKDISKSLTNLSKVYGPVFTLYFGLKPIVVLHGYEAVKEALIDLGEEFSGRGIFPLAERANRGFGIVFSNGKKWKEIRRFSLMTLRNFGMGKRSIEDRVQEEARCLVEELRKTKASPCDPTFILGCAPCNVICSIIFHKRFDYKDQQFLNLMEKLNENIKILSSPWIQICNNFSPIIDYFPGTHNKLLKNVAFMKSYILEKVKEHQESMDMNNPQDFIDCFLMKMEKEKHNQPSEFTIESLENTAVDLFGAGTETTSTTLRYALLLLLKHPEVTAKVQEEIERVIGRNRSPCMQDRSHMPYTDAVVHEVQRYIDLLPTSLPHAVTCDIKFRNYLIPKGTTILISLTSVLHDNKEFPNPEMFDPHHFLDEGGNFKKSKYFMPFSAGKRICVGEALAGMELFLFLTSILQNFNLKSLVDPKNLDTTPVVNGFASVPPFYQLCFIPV

H4 = assay: Luminescence Cell-Based Dose Response HTS to Identify Activators of 5'UTR Stem-Loop Driven Prion Protein mRNA Translation in H4 Neuroglioblastoma Cells. [Related pubchem assays: 1829 (Project Summary), 1814 (Primary HTS)]; assay type: functional; settings: Homo sapiens
[4] = Luminescence Cell-Based Dose Response HTS to Identify Activators of Luciferase Translation or Activity in H4 […] Cells. [Related pubchem assays: 1829 (Project Summary), 1814 (Primary HTS)]; assay type: functional
[5] = NIH3T3 cell viability loss – ATP luminescence, mouse fibroblasts, counter-screen, dose response (AID 2010); assay type: functional, cell-based;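 further: cells exposed to compound for about 90 hours before reading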
[6] = Trypanosoma cruzi growth suppression in host cells – NIH3T3 host cells, beta-gal luminescence, confirmation (AID 2044); assay type: functional, cell-based;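 further: intracellular parasites grown in NIH/3T3 mouse fibroblasts as host cells; luminescent beta-galactosidase reporter signal from transgenic T. cruzi replicating inside host cells; inhibitors lower the luminescence signal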

SMILES: CCc1nc(NCCC(C)C)c(C#N)c2c1CCCC2
- IC50 [1]: > 47.1 µM (inactive)
- IC50 (Protein skinhead-1): > 100 µM (inactive)
- EC50 [2]: > 53 µM (inactive)

SMILES: Clc1ccc(-c2nnc(-c3ccccc3)o2)cn1
- IC50 (Protein skinhead-1): 39.8 µM (active)

SMILES: COc1ccc(/C=C/C(=O)N(C(C)C)C(C)C)cc1Br
- EC50 [3]: 200 µM (active)

SMILES: O=C1/C(=C\c2cccs2)SC(=S)N1C1CCS(=O)(=O)C1 (centres undefined)
- IC50 (Protein skinhead-1): > 100 µM (inactive)

SMILES: COc1ccc(-c2nc3cnc(N4CCNCC4)nc3n(C)c2=O)cc1
- AC50 (Cytochrome P450 1A2): 12.6 µM (inconclusive)
- AC50 (Cytochrome P450 3A4): 31.6 µM (inconclusive)

SMILES: COc1cccc(-c2ccc3ncnc(N4CCNCC4)c3c2)c1
- AC50 (Cytochrome P450 3A4): 10 µM (inconclusive)

SMILES: CN(C)c1ccc(C(CNC(=O)c2ccccc2)c2c[nH]c3ccccc23)cc1 (centres undefined)
- EC50 [3]: > 260 µM (inactive)

SMILES: CC(NC(=O)/C=C/c1ccco1)c1nc2ccccc2n1Cc1cccc(Cl)c1 (centres undefined)
- EC50 [3]: > 260 µM (inactive)

SMILES: c1ccc(N2CCN(c3cnc4ccccc4n3)CC2)cc1
- IC50 (Protein skinhead-1): 76.2 µM (inactive)

SMILES: CC(=O)NCCNc1nc(-c2ccccc2Cl)nc2ccccc12
- AC50 (Cytochrome P450 3A4): 5.01 µM (inconclusive)

SMILES: CC(=O)N1CSCC1C(=O)NNS(=O)(=O)c1cccc(C(F)(F)F)c1 (centres undefined)
- EC50 [3]: > 260 µM (inactive)

SMILES: N[C@@H](CC1=CS(=O)(=O)c2ccc(Cl)cc21)C(=O)O
- AC50 (Cytochrome P450 1A2): 0.398 µM (inconclusive)
- AC50 (Cytochrome P450 2C9): 6.31 µM (inconclusive)
- AC50 (Cytochrome P450 3A4): 5.01 µM (inconclusive)

SMILES: Cc1ccccc1OCc1nnc2c3cnn(C)c3ncn12
- EC50 (H4): 38.8 µM (active)
- EC50 [4]: 16.8 µM (active)

SMILES: CC(=O)N1CCC[C@@]2(CCN(Cc3nccs3)C2)C1
- AC50 (Cytochrome P450 3A4): 31.6 µM (inconclusive)

SMILES: COC(=O)c1[nH]c2ccccc2c1NC(=O)C(C)N1CCOCC1 (centres undefined)
- IC50 (Protein skinhead-1): > 100 µM (inactive)

SMILES: COc1ccc(Nc2oc(-c3ccc(F)cc3)nc2C#N)cc1
- EC50 (H4): > 120 µM (not active)
- EC50 [4]: 15.1 µM (active)

SMILES: CSc1ccc(S(=O)(=O)N2CCC(C(=O)Nc3ccccc3C(F)(F)F)CC2)cc1
- IC50 (Protein skinhead-1): > 100 µM (inactive)

SMILES: CCn1cc(C(=O)OCC(=O)NCc2ccc3c(c2)OCO3)c(=O)c2ccc(C)nc21
- IC50 (Protein skinhead-1): > 100 µM (inactive)

SMILES: Cc1cc(C)n(-c2nc3ccccc3n3cnnc23)n1
- IC50 (Protein skinhead-1): > 100 µM (inactive)

SMILES: Fc1ccc(-c2cnn3c(-c4ccncc4)ccnc23)cc1
- IC50 (Protein skinhead-1): > 100 µM (inactive)

SMILES: COc1cc(-c2cn(S(=O)(=O)c3cccc4nsnc34)nc2N)cc(OC)c1OC
- EC50 [3]: > 260 µM (inactive)

SMILES: Cc1csc(NC(=O)CNS(=O)(=O)c2cccs2)n1
- AC50 (Cytochrome P450 3A4): 17.8 µM (inconclusive)

SMILES: COc1cccc(CNCc2ccc(SC)cc2)c1OC
- AC50 (Cytochrome P450 3A4): 11.2 µM (inconclusive)

SMILES: O=C(Nc1ccccc1C(=O)N1CCCC1)c1ncoc1-c1cccc(Cl)c1
- EC50 [3]: > 260 µM (inactive)

SMILES: O=C(CN1CCN(S(=O)(=O)N2CCCCC2)CC1)Nc1cc(Cl)cc(Cl)c1
- IC50 (Protein skinhead-1): > 100 µM (inactive)

SMILES: N#CC(c1ccccn1)(c1ncc(C(F)(F)F)cc1Cl)N1CCOCC1 (centres undefined)
- AC50 (Cytochrome P450 3A4): 35.5 µM (inconclusive)

SMILES: N#C/C(=C(\O)C(F)(F)F)c1nnc2n1CCCCC2
- EC50 [3]: > 260 µM (inactive)

SMILES: COc1cc(/C=N/NC(=O)c2ccncc2)ccc1OC(=O)c1ccc([N+](=O)[O-])cc1
- AC50 (Cytochrome P450 2C9): 3.55 µM (inconclusive)
- AC50 (Cytochrome P450 3A4): 0.891 µM (inconclusive)

SMILES: CO/C(O)=C1/C(C)=NC2=C(C(=O)CC(C)(C)C2)C1c1cn(Cc2ccc(Br)cc2)nc1-c1ccccc1 (centres undefined)
- EC50 [3]: > 260 µM (inactive)

SMILES: COc1ccc(/C(C)=N/NC(=S)NCc2ccco2)cc1
- EC50 [3]: > 260 µM (inactive)

SMILES: CCOC(=O)C1=C(Nc2ccccc2)CC(C)(O)C(C(=O)OCC)C1c1ccc(Cl)cc1 (centres undefined)
- IC50 (Protein skinhead-1): > 100 µM (inactive)

SMILES: C[C@@H](N)Cn1ccc2cc(F)c(Cl)cc21
- AC50 (Cytochrome P450 3A4): 39.8 µM (inconclusive)

SMILES: N#C/C(=C\c1ccc(Sc2ccccc2)o1)c1nc2ccccc2[nH]1
- EC50 (H4): 23 µM (active)
- EC50 [4]: 0.561 µM (active)
- EC50 [5]: > 60 µM (inconclusive)
- EC50 [6]: 1.42 µM (active)
